According to patent publication US7407763B2, “Systems and methods for detecting and regulating metastasis” (The Regents of the University of Michigan, priority 2004, dated 2008):

Experiments:
[1] = test system: RKIP mRNA expression; assay: RKIP mRNA expression in RWPE cells by real-time RT-PCR; format: cell-based, human
[2] = test system: putative RKIP ARE; conditions: RWPE nuclear extracts, 5 nM DHT, as early as 30 min
Description: The reaction was allowed to proceed for 30 min at room temperature.

[3] = test system: human RKIP promoter; conditions: RWPE cells, DHT 5 nM, 10 nM, 24 h, compared to basal activity
[4] = test system: RKIP mRNA levels; assay: RKIP mRNA levels in LNCaP cells by real time PCR; format: cell-based, human; conditions: IL-6 50 ng/ml, 6 or 24 hours (FIG. 7)
Description: LNCaP cells were plated in culture dishes and treated with IL-6 (50 ng/ml) or vehicle for 6 or 24 hours. Total RNA was collected and subjected to real time PCR for RKIP mRNA levels. RKIP mRNA levels were normalized to β-galactosidase mRNA levels.

[5] = test system: C4-2B cells; assay: In vitro invasion assay with protein kinase inhibitors; format: cell-based, human; conditions: in vitro invasion through matrix, C4-2B cells (FIG. 4)
Description: The invasiveness of control and sense or antisense-transfected cell clones was evaluated in 24-well transwell chambers (Costar, Cambridge, Mass.) as directed by the manufacturer. Briefly, the upper and lower culture compartments were separated by polycarbonate filters with 8-μm pore size. Some wells were coated with 100 μg/cm^2 collagen matrix (MATRIGEL, Collaborative Biomedical Products, Bedford, Mass.) that was reconstituted by adding 0.5 ml of serum-free T medium for 2 hours. […] Cell penetration through the membrane was quantified by staining the porous membrane with a Diff-Quik stain kit. The numbers of cells that penetrated through the membrane were counted in five microscopic fields (×200) per filter. Invasive ability was then determined as the proportion of cells that invaded through the matrix-coated membrane relative to the number of cells that migrated through the uncoated membrane (baseline migration). […]
Furthermore, because RKIP inhibits tumor invasiveness, it was investigated whether RKIP exerts its metastasis suppressor gene function through regulation of MEK activation. […] Accordingly, the effect of a variety of kinase inhibitors was evaluated, including a MEK inhibitor (PD098059) on in vitro invasion. […]

## CC(O)(CS(=O)(=O)c1ccc(F)cc1)C(=O)Nc1ccc(C#N)c(C(F)(F)F)c1 (stereo not drawn) [Casodex]
[1]; RWPE cells, 24 h, casodex in the presence of DHT (FIG. 12B)
  effect on DHT induction of RKIP mRNA expression: substantially reduced

## C[C@]12CCC(=O)C[C@@H]1CC[C@@H]1[C@@H]2CC[C@]2(C)[C@@H](O)CC[C@@H]12 [DHT, dihydrotestosterone]
[1]
  RKIP expression in cells treated with CHX: increase in RKIP expression
  increase in RKIP mRNA at 1 nM: significant (P<0.01) increase
  induction of RKIP expression at 0.1 nM: almost no induction
  maximum induction of RKIP mRNA expression: 1.5 fold
[1]; RWPE cells, 24 h, >=5 nM DHT
  induction of RKIP expression at saturating amounts (>=5 nM): significant (P<0.01) induction
[1]; RWPE cells, 24 h, various concentrations of DHT
  RKIP mRNA expression versus DHT concentration: dose-dependent increase
[2]
  DNA binding activity to RKIP ARE probe: rapid increase in DNA binding activity
[3]
  increase in luciferase activity of RKIP promoter plasmid: approximately 3 fold

## C[C@@H]1C[C@@H]([C@H](O)CC2CC(=O)NC(=O)C2)C(=O)[C@@H](C)C1 [CHX, cycloheximide]
[1]; RWPE cells, 24 h, CHX alone (FIG. 12C)
  expression of RKIP, treatment alone: did not change the expression of RKIP

## IL-6: the cytokine interleukin-6
[4]
  RKIP expression in LNCaP prostate cancer cells: reduces RKIP expression

## COc1cccc(-c2cc(=O)c3ccccc3o2)c1N [PD098059]
[5]
  decrease of invasive ability of C4-2B cells: 41%
